# Laboratory results as given in US11279733B2, “Peptide antibiotics” (priority 2017, dated 2022).
# Like-named read-outs stand apart in the source and are kept apart here. Positions of bridges follow the written chain, without caps; N, C: chain ends. Non-standard residues stand in square brackets, D forms with d. Residues, ends and D or L forms follow the SMILES beside them. *: point of attachment. Decanoyl(3R-OH) = CCCCCCC[C@@H](O)CC(=O)*; dDab = NCC[C@@H](N)C(=O)O; Dab = NCC[C@H](N)C(=O)O; Pentanoyl = CCCCC(=O)*
# Columns and labels:
# A. baumannii ATCC 19606 = conditions: ATCC 19606
# Procedure, shortened: (§1)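 Mid-log cultures grown in Mueller Hinton broth at 37° C were tested by 2-fold broth microdilution at 5×10^5 CFU/mL final. Compounds were dissolved in water and tested over a final range of 32 to 0.015 μg/mL.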
# E. coli ATCC 25922 = conditions: ATCC 25922
# Procedure, shortened: as §1
# K. pneumoniae ATCC 13883 = conditions: ATCC 13883
# Procedure, shortened: as §1
# [1] = tested on: K. pneumoniae ATCC 700603, MDR; conditions: ATCC 700603
# Procedure, shortened: as §1
# [2] = tested on: K. pneumoniae ATCC BAA-2146, NDM-1 pos; conditions: ATCC BAA-2146
# Procedure, shortened: as §1
# P. aeruginosa ATCC 27853 = conditions: ATCC 27853
# Procedure, shortened: as §1
# [3] = tested on: P. aeruginosa GN_043, PmxR
# Procedure, shortened: as §1
# in vitro = conditions: human
# Experimental: Cytotoxicity of the synthesised peptides was evaluated by comparison with commercially available colistin (polymyxin E), polymyxin B (Sigma chemical Co., St. Louis, Mo., U.S.A.) and synthetic octapeptin C4 by conducting lactate dehydrogenase (LDH) assay. CC50 values calculated based on curve fitting of dose dependent inhibition of cell growth represented the cytotoxicity of the peptide. Human kidney 2 (HK2) cells were seeded as 2000 cells per well in a 384 well cell culture plate in a final volume of 20 μL in DMEM/F12 medium (Invitrogen #11330057), in which 10% of FBS was added. Cells were incubated for 24 hours at 37° C., 5% CO2 to allow cells to attach to the plates. Similar conditions were employed for HEK293 and HepG2 cytotoxicity assays.
# Colistin and polymyxin B were tested from a range of 2 mM to 0.9 μM. 120 μL of the 1 mM stock solutions in water of each synthesised peptide were freeze-dried and processed for LDH assay. After freeze-dry procedure, the compounds were reconstituted into 600 μM solutions using culture media. All tested compounds were diluted from 600 μM to 0.27 μM in 3-fold dilutions. Then 20 μL of each dilution was added into 20 uL of culture medium in quadruplicate to reach the final concentrations. The cells were incubated with the compounds for 24 h at 37° C., 5% CO2. After the incubation, 5 μL of culture medium was added to 50 μL of LDH assay buffer and incubated for 1 h at room temperature. The absorbance was read at 450 nm using Polarstar. The data was then analysed by Prism software. […] Nephrotoxicity Assessment in Human Proximal Tubule Cells.
# A. baumannii GN_093 PmxR = conditions: GN 093 PmxR
# Procedure, shortened: as §1
# [4] = tested on: K. pneumoniae GN_102 PmxR; conditions: GN 102 PmxR
# Procedure, shortened: as §1
# [5] = tested on: K. pneumoniae GN_106, PmxR; conditions: GN 106, PmxR
# Procedure, shortened: as §1
# [6] = tested on: P. aeruginosa GN_105, PmxR; conditions: GN 105, PmxR
# Procedure, shortened: as §1
# [7] = tested on: S. aureus ATCC 25923, MSSA; conditions: ATCC 25923
# Procedure, shortened: as §1
Structure (SMILES),MIC A. baumannii ATCC 19606 (A. baumannii ATCC 19606) [µg/mL],MIC E. coli ATCC 25922 (E. coli ATCC 25922) [µg/mL],MIC K. pneumoniae ATCC 13883 (K. pneumoniae ATCC 13883) [µg/mL],"MIC K. pneumoniae ATCC 700603, MDR [1] [µg/mL]","MIC K. pneumoniae ATCC BAA-2146, NDM-1 pos [2] [µg/mL]",MIC P. aeruginosa ATCC 27853 (P. aeruginosa ATCC 27853) [µg/mL],CC50 at 24 h (in vitro) [µM],further results
"CCCCCCC[C@@H](O)CC(=O)N[C@H](CO)C(=O)N[C@H]1CCNC(=O)[C@H]([C@@H](C)O)NC(=O)[C@H](CCN)NC(=O)[C@H](CCN)NC(=O)[C@H](CC(C)C)NC(=O)[C@@H](Cc2ccccc2)NC(=O)[C@H](CCN)NC1=O [compound 754, 3(R)OH-nC9CO-D-Ser-cyc[L-Dab-L-Dab-D-Phe-L-Leu-L-Dab-L-Dab-L-Thr]] ({Decanoyl(3R-OH)}-[dS][Dab][Dab][dF]L[Dab][Dab]T; lactam 2-C)",16,32,32,32,32,4,154,"MIC P. aeruginosa GN_043, PmxR ([3]; P. aeruginosa GN_043, PmxR): >32 µg/mL"
"CCCCCCC[C@@H](O)CC(=O)N[C@H](CO)C(=O)N[C@H]1CCNC(=O)[C@H](CC(C)C)NC(=O)[C@H](CCN)NC(=O)[C@H](CCN)NC(=O)[C@H](CC(C)C)NC(=O)[C@@H](Cc2ccccc2)NC(=O)[C@H](CCN)NC1=O [compound 918, 3(R)OH-nC9CO-D-Ser-cyc[L-Dab-L-Dab-D-Phe-L-Leu-L-Dab-L-Dab-L-Leu]] ({Decanoyl(3R-OH)}-[dS][Dab][Dab][dF]L[Dab][Dab]L; lactam 2-C)",–,–,–,–,–,–,113,"MIC, A. baumannii ATCC 19606 (A. baumannii ATCC 19606): 4 µg/mL; MIC, E. coli ATCC 25922 (E. coli ATCC 25922): 8 µg/mL; MIC, K. pneumoniae ATCC 13883 (K. pneumoniae ATCC 13883): 8 µg/mL; MIC, K. pneumoniae ATCC 700603, MDR [1]: 8 µg/mL; MIC, K. pneumoniae ATCC BAA-2146, NDM-1 pos [2]: 4 µg/mL; MIC, P. aeruginosa ATCC 27853 (P. aeruginosa ATCC 27853): 8 µg/mL; MIC P. aeruginosa GN_043, PmxR ([3]; Table 6, polymyxin-resistant): >32 µg/mL"
"CCCCC(=O)N[C@H](CCN)C(=O)N[C@H]1CCNC(=O)[C@H](CC(C)C)NC(=O)[C@H](CCN)NC(=O)[C@H](CCN)NC(=O)[C@H](CC(C)C)NC(=O)[C@@H](Cc2ccccc2)NC(=O)[C@H](CCN)NC1=O [compound 919, C4CO-D-Dab-cyc[L-Dab-L-Dab-D-Phe-L-Leu-L-Dab-L-Dab-L-Leu]] (Pentanoyl-[dDab][Dab][Dab][dF]L[Dab][Dab]L; lactam 2-C)",16,32,32,>32,16,2,> 300,"MIC P. aeruginosa GN_043, PmxR [3]: >32 µg/mL"
"CCCCCCC[C@@H](O)CC(=O)N[C@H](CCN)C(=O)N[C@H]1CCNC(=O)[C@H](C)NC(=O)[C@H](CCN)NC(=O)[C@H](CCN)NC(=O)[C@H](CC(C)C)NC(=O)[C@@H](Cc2ccccc2)NC(=O)[C@H](CCN)NC1=O [compound 4943, 3(R)OH-nC9CO-D-Dab-cyc[L-Dab-L-Dab-D-Phe-L-Leu-L-Dab-L-Dab-L-Ala]] ({Decanoyl(3R-OH)}-[dDab][Dab][Dab][dF]L[Dab][Dab]A; lactam 2-C)",>32,8,16,8,8,1,> 300,"MIC A. baumannii GN_093 PmxR (A. baumannii GN_093 PmxR): 32 µg/mL; MIC K. pneumoniae GN_102 PmxR [4]: 8 µg/mL; MIC K. pneumoniae GN_106, PmxR [5]: 16 µg/mL; MIC P. aeruginosa GN_043, PmxR ([3]; polymyxin-resistant): 0.5 µg/mL; MIC P. aeruginosa GN_105, PmxR [6]: 16 µg/mL; MIC S. aureus ATCC 25923, MSSA [7]: >32 µg/mL"
